Assays:
[1] = test system: THP-1 monocytes; test: Protection from oxidative stress, MitoSOX Red mitochondrial superoxide indicator, flow cytometry; format: cell-based; settings: 3 hours treatment, then H2O2 challenge 3 hours, sample 100 ug/ml final, positive control 100 uM, 0% = challenged negative control, 100% = unchallenged normal control
From the text: The assay described in this experiment measures oxidative stress occurring within the mitochondria. As discussed above, the biochemical reactions used by mitochondria to generate energy yielding ATP molecules also produce highly oxidizing superoxide free radical as a by-product. Using flow cytometry, the below example measures the protection various test samples provide from oxidative stress by monitoring the status of superoxide within mitochondria following treatment with the test materials.
MitoSOX Red mitochondrial superoxide indicator (Invitrogen cat#M36008) is a fluorescent dye that is selectively taken up by mitochondria. Once in the mitochondria, MitoSOX reacts with superoxide free radical to form a fluorescent product (excitation/emission maxima=510/580 nm) that binds to mitochondrial nucleic acids. A higher fluorescence reading corresponds to a higher level of superoxide free radical being present within the mitochondria.
Cell Culture: One 6 well plate is used per sample. Multiple plates may be prepared simultaneously. Refer to Table I for a plate description. THP-1 monocytes (ATCC cat# TIB-202) are plated at 1.5×10^6 cells/well in 6 well plates (contained in 2 ml/well RMPI 1640 media supplemented with 10% FBS) and incubated for 1 hour before treating.
Treatment: Glutathione monoethylester (GMEE, 100 uM final concentration) is used as a positive control. […]

[2] = Oxygen radical absorbency capacity (ORAC)

| SMILES | protection from oxidative stress [1] | oxygen radical absorbency capacity (ORAC) [2] |
| --- | --- | --- |
| CCOC(=O)CNC(=O)[C@H](CS)NC(=O)CC[C@H](N)C(=O)O [glutathione methyl ester] | 35% |  |
| COC(=O)c1cc(O)ccc1O [Methylgentisate, methylgentisate] |  | 25,605 μmol Teq/g |

— patent publication US20080138393A1, “Water soluble extract of spinach for prevention and repair of DNA damage” (Access to Business Group International LLC, priority 2006, published 2008)
